Results taken from US6607906B1, “Heterologous G protein coupled receptors expressed in yeast, their fusion with G proteins and use thereof in bioassay” (priority 1994, dated 2003).
Like-named read-outs stand apart in the source and are kept apart here. Residues, ends and D or L forms follow the SMILES beside them.

Columns and labels:
[1] = tested on: porcine SSTR2; test: Agar plate growth bioassay, yeast expressing porcine SSTR2 (LY474); format: cell-based
[2] = molecular target: T1, human GRF receptor (Homo sapiens, UniProt Q02643); test: Agar plate growth bioassay, yeast expressing GRF receptor (CY990); format: cell-based
T1 construct: expressed in transfected cells; host or cells: Saccharomyces cerevisiae CY990 (LY296 with pJH25 and pLP122 Gpa1-Gαs)
T1 sequence (Q02643 23-423): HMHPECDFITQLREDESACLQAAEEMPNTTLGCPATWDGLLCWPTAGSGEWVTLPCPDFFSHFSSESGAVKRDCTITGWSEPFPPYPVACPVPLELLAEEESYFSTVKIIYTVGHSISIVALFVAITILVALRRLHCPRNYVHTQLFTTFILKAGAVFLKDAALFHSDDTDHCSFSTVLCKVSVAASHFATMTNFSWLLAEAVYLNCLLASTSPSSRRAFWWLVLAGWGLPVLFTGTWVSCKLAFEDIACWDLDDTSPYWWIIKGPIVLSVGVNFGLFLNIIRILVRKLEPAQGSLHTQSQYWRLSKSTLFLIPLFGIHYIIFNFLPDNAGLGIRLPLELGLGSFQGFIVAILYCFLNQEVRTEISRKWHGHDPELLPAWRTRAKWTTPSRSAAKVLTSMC

[3] = molecular target: T2, rat CCKB receptor (Rattus norvegicus, UniProt P30553); test: Agar plate growth bioassay, yeast expressing CCKB receptor (LY628, LY631); format: cell-based
T2 construct: expressed in transfected cells; host or cells: Saccharomyces cerevisiae LY296 derivatives LY631 (Gpa1-Gαs chimera, pLP122) and LY628 (Gpa1-Gαi2 chimera, pLP121)
T2 sequence (P30553 1-452): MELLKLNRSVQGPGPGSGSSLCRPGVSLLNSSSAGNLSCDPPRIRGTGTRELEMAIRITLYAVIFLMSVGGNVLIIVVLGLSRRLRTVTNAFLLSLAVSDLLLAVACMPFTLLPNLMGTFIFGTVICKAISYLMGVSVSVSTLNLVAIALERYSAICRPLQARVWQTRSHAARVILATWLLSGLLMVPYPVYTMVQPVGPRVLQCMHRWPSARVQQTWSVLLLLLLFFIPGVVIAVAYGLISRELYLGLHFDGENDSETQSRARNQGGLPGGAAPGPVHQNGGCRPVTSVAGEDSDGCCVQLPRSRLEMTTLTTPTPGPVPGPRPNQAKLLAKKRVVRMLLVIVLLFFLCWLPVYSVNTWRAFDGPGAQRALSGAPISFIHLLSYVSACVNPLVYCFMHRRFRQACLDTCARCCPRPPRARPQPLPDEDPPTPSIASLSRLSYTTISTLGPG

[4] = molecular target: T3, rat SSTR5 (Rattus norvegicus, UniProt P30938); test: Agar plate growth bioassay, yeast expressing SSTR5 (LY620); format: cell-based
T3 construct: expressed in transfected cells; host or cells: Saccharomyces cerevisiae LY620 (LY296 with pJH19 and pLP121 Gpa1-Gαi2)
T3 sequence (P30938 1-363): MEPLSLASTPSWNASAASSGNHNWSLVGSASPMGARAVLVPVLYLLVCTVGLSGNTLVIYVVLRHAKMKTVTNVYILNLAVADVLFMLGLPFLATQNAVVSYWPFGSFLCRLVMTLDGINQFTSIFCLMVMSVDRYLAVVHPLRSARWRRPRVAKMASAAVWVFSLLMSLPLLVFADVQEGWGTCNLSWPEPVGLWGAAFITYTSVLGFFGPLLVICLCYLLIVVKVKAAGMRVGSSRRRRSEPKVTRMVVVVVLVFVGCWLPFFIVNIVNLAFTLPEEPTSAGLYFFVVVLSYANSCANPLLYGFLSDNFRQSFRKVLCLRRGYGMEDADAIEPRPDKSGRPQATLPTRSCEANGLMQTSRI

[5] = molecular target: T4, human 5HTla receptor (Homo sapiens, UniProt P08908); test: Saturation binding of 3H-spiperone to yeast membrane fractions (strain CY382, pCHI11)
T4 construct: first 14 amino acids of yeast Ste2 (N); expressed in transfected cells; host or cells: Saccharomyces cerevisiae strain CY382 (plasmid pCHI11), membrane fractions
T4 sequence (P08908 with tags, fused parts or gaps): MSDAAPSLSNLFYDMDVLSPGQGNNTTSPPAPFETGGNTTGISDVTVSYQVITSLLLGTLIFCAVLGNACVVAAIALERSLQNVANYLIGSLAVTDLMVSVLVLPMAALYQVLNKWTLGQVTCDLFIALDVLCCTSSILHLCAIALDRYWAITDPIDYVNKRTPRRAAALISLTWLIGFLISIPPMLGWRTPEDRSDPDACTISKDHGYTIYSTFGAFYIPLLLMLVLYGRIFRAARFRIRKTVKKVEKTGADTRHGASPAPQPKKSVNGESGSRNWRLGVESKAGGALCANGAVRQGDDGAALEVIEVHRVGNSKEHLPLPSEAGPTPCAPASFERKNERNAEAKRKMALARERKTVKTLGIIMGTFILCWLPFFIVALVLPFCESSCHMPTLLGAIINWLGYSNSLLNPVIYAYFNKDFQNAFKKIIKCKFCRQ

[6] = molecular target: rat CCKB receptor (rat) (UniProt P30553); test: cell-based or functional assay
[7] = molecular target: T2, rat CCKB receptor; test: Radiolabeled agonist saturation binding of 3H-CCK-8, yeast membranes (LY631); conditions: GppNHp 100 μM, LY631 crude membranes
Procedure: Ligand-binding to the rat CCKBreceptor expressed in yeast. Crude membrane fractions from overnight liquid cultures of LY631 cells were prepared, and agonist saturation binding assays conducted as described in Methods and Materials. Saturation binding was performed with 4-60 nM[^3H]
Radiolabeled agonist saturation binding assays. Crude yeast membrane extracts from late log phase cultures were prepared by glass-bead lysis and centrifugation at 40,000 xg following a published procedure (13). […] Non-specific binding was defined as that observed in the presence of 1 μM CCK-4.

[8] = molecular target: T5, rat SSTR2 somatostatin receptor subtype (Rattus norvegicus, UniProt P30680); test: Binding of radiolabeled somatostatin 14 to membranes of yeast expressing SSTR2; conditions: for percent radioligand bound compared to untreated samples, +Gpp(NH)p: Gpp(NH)p 100 μM
T5 construct: expressed in transfected cells; host or cells: Saccharomyces cerevisiae YPH500 derivatives CY624 (Gαi2), CY602 (Gαs), CY603 (Scg1); crude membranes
T5 sequence (P30680 with tags, fused parts or gaps limits assumed): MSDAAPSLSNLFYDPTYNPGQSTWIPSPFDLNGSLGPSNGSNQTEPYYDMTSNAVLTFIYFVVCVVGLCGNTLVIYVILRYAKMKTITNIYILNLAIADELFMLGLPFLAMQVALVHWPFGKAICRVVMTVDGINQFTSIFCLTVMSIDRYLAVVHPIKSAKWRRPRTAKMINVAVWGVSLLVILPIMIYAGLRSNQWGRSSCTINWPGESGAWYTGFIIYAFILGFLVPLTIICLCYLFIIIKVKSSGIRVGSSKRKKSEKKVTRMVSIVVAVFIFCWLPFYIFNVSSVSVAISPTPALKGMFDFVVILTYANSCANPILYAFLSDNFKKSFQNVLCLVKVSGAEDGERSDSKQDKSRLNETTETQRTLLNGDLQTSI

[9] = molecular target: rat SSTR2 (Rattus norvegicus, UniProt P30680); format: cell-based
Chain of rat SSTR2 (P30680 whole entry): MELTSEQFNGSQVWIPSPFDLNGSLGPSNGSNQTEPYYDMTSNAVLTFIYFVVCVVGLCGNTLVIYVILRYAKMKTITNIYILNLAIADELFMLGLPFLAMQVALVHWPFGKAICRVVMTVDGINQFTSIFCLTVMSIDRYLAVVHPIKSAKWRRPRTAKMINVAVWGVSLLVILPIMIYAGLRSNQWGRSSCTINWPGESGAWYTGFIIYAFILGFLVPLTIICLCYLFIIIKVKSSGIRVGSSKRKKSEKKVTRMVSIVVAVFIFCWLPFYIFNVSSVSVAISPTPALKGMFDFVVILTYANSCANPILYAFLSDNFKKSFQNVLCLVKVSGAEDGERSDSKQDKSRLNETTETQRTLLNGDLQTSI

[10] = molecular target: human GRF receptor (human) (UniProt Q02643); test: cell-based or functional assay
[11] = molecular target: rat SSTR2 somatostatin receptor subtype (rat) (UniProt P30680); test: maximal radioligand binding, crude membranes of yeast strain CY603 (SSTR2 with Scg1)
Chain of rat SSTR2 somatostatin receptor subtype (rat) (P30680 whole entry): as above

[12] = molecular target: rat SSTR2 somatostatin receptor subtype (rat) (UniProt P30680); test: saturation radioligand binding, membranes of yeast coexpressing SSTR2 and Scg1/Gαi2
[13] = molecular target: porcine SSTR2 expressed from plasmid pJH17 (porcine) (UniProt P34994); test: saturation radioligand binding, crude membranes of yeast cells bearing pJH17
[14] = molecular target: rat SSTR2 somatostatin receptor subtype (rat) (UniProt P30680); test: radioligand binding with Gpp(NH)p (100 µM), crude membranes of yeast strain CY603 (SSTR2 with Scg1)
[15] = molecular target: rat SSTR2 somatostatin receptor subtype (rat) (UniProt P30680); test: radioligand binding with Gpp(NH)p (100 µM), crude membranes of yeast strain CY624 (SSTR2 with Gαi2)
[16] = molecular target: rat SSTR2 somatostatin receptor subtype (rat) (UniProt P30680); test: maximal radioligand binding, crude membranes of yeast strain CY624 (SSTR2 with Gαi2)
[17] = molecular target: rat SSTR2 somatostatin receptor subtype (rat) (UniProt P30680); test: maximal radioligand binding, crude membranes of yeast strain CY602 (SSTR2 with Gαs)
[18] = molecular target: rat SSTR2 somatostatin receptor subtype (rat) (UniProt P30680); test: radioligand binding with Gpp(NH)p (100 µM), crude membranes of yeast strain CY602 (SSTR2 with Gαs)
[19] = LY628 and LY631 cells, 30° C., 3 days

What does the source list for `CC(C)NCC(O)c1ccc(O)c(O)c1` (centres unmarked) [isoproterenol]?
growth response ([1]; LY474 cells, 3 days): not observed; growth response ([2]; CY990 cells, 3 days): not observed; growth response [3, 19]: not observed; growth response ([4]; LY620 cells, 3 days): not observed

For `O=C(CCCN1CCC2(CC1)C(=O)NCN2c1ccccc1)c1ccc(F)cc1` [^3H-spiperone, spiperone], which Bmax ([5]; saturation binding, strain CY382) is on record?
Its Bmax is 3.2 pmol/mg protein.

And the Bmax ([5]; strain carrying pCHI11)?
Its Bmax is 3.1 pmol/mg.

CCK-4: cholecystokinin was tested. Which “amount giving a detectable response” value [3] did it give?
Its value is 10 µg.

And the “diameter of the growth zones, rank order” value [3]?
Its value is “CCK-8>gastrin>CCK-4”.

And the growth response [3, 19]?
The growth response was “dose-dependent growth response”.

“CCK-4 (from UniProt P06307 100-103) (peptide)” was tested. Which amount giving a detectable growth response [6] did it give?
Its amount giving a detectable growth response is 10 µg.

What does the source list for `Nc1nc2c(ncn2[C@@H]2O[C@H](COP(=O)(O)OP(=O)(O)NP(=O)(O)O)[C@@H](O)[C@H]2O)c(=O)[nH]1` [Gpp (NH) p]?
decrease of specific binding of 3H-CCK-8 [7]: greater than 50%; percent radioligand bound compared to untreated samples, +Gpp(NH)p ([8]; strain CY602, Gαs): 0%; percent radioligand bound compared to untreated samples, +Gpp(NH)p ([8]; strain CY603, Scgl): 4%; percent radioligand bound compared to untreated samples, +Gpp(NH)p ([8]; strain CY624, Gαi): 22%

Which results are given for “met-enkephalin: an opiate receptor agonist”?
growth response [1]: not observed; growth response [2]: not observed; growth response [3]: not observed; growth response [4]: not observed; growth response (halo) around disks [9]: No detectable response

Which results are given for `Cc1cc(C(C)(C)C)c(O)c(C)c1CC1=NCCN1` [oxymetazoline]?
growth response ([1]; LY474 cells, 3 days): not observed; growth response ([2]; CY990 cells, 3 days): not observed; growth response [3, 19]: not observed; growth response ([4]; LY620 cells, 3 days): not observed

Which results are given for sandostatin?
diameter of the growth zones, rank order [1]: S-14=MK678>sandostatin; growth response [1]: dose-dependent growth response

With “hGRF (1-29)-NH2: an agonist analog of GRF” as the compound, how does the “amount giving a detectable response” value [2] read?
The value was 20 nmol.

What about the growth response ([2]; CY990 cells, 3 days) of the same compound?
The growth response was “dose-dependent growth response”.

With `C[C@H](N)C(=O)NCC(=O)N[C@H]1CSSC[C@@H](C(=O)O)NC(=O)[C@H](CO)NC(=O)[C@H]([C@@H](C)O)NC(=O)[C@H](Cc2ccc(O)c(I)c2)NC(=O)[C@H]([C@@H](C)O)NC(=O)[C@H](CCCCN)NC(=O)[C@H](Cc2c[nH]c3ccccc23)NC(=O)[C@H](Cc2ccccc2)NC(=O)[C@H](Cc2ccccc2)NC(=O)[C@H](CC(N)=O)NC(=O)[C@H](CCCCN)NC1=O` [[^125I]tyr^11S-14] (HELM PEPTIDE1{A.G.C.K.N.F.F.W.K.T.[O=C([C@H](Cc1ccc(O)c(I)c1)N[*:1])[*:2]].T.S.C}$PEPTIDE1,PEPTIDE1,3:R3-14:R3$$$V2.0; N-terminus and C-terminus assumed; bridges inferred) as the compound, how does the Bmax ([8]; strain CY602, Gαs) read?
The Bmax was 13.7 fmol/mg total protein.

And the Bmax ([8]; strain CY603, Scgl)?
The Bmax was 24.7 fmol/mg total protein.

What about the Bmax ([8]; strain CY624, Gαi) of the same compound?
The Bmax was 94.5 fmol/mg total protein.

What about the Kd ([8]; yeast coexpressing Scgl/Gαi2, read-out: calculated Kd) of the same compound?
Its Kd is 500 pM.

Which results are given for `C[N+](C)(C)CCOC(N)=O` [carbachol]?
growth response ([1]; LY474 cells, 3 days): not observed; growth response ([2]; CY990 cells, 3 days): not observed; growth response [3, 19]: not observed; growth response ([4]; LY620 cells, 3 days): not observed

For “hGRF (1-29)-NH2 (from UniProt P01286 32-60) (peptide)”, which amount giving a detectable growth response, strain CY990 [10] is on record?
Its amount giving a detectable growth response, strain CY990 is 20 nmol.

What does the source list for “[^125I-tyr^11]-somatostatin 14 (from UniProt P61278 103-116) (peptide)”?
Bmax (fmol/mg total protein) [11]: 24.7; Kd [12]: 500 pM; Bmax [13]: 146 fmol/mg; percent radioligand bound with Gpp(NH)p compared to untreated samples [14]: 4%; percent radioligand bound with Gpp(NH)p compared to untreated samples [15]: 22%; Bmax (fmol/mg total protein) [16]: 94.5; Bmax (fmol/mg total protein) [17]: 13.7; percent radioligand bound with Gpp(NH)p compared to untreated samples [18]: 0%
